# Several values for one entry are separate records, joined by “and”; a condition that tells them apart may be missing. Equal entries are not always repeated.
# Tested on: blood Phe
# Assay: Reduction of blood Phe in patients with PKU, randomized crossover of PTC923 vs sapropterin dihydrochloride
# Format: in vivo, human
# Details: for Proportion of patients achieving blood Phe <360 μmol/L: n of 24; for Mean (SD) blood Phe, At baseline: Day 1 pre-dose; for Least squares mean (SE) change from baseline in blood Phe / Mean (SD) blood Phe, Change / Mean (SD) blood Phe, On treatment: 7 days; for Mean (SD) blood Phe, On treatment: mean of days 3, 5 and 7
# Procedure: Following screening for eligibility, a 7-day run-in period commenced. Patients then received 7 days of once-daily oral treatment with either PTC923 20 mg/kg/day (“low dose”), or PTC923 60 mg/kg/day or sapropterin dihydrochloride, in a random order. PTC923 (formerly CNSA-001) is oral sepiapterin. Each patient was randomized to one of six treatment sequences (FIG. 2). The randomization in six different treatment sequences was intended to minimize carry over effect, treatment period effect, patient fatigue, and natural fluctuations in blood Phe levels. A 7-day washout period separated each active treatment period. Patients were asked to maintain their usual pre-study diet, including consumption of amino acid mixtures if prescribed, and were monitored throughout the study by a metabolic dietician.
# Blood samples for measurement of Phe were taken on 7, 5, 3, and 1 days before randomization. During treatment periods, blood was taken pre-dose for day 1 and post-dose for days 3, 5 and 7. During the washout periods, blood was taken for measurement of Phe on days 1, 3, 5, and 7. All samples were taken under fasting conditions or no earlier than 3 hours following a meal and at the same time of day. Blood Phe was measured using a validated LC-MS-MS technique of dried blood sampling via Volumetric Absorptive Microsampling (VAMS®) using Mitra® 4-sampler clamshells, at a central bioanalytical laboratory (Agilex Biolabs Pty Ltd).
# The main objective of the study was to assess the efficacy of PTC923 measured as the mean blood Phe change from baseline. The efficacy population consisted of all patients who were randomized and had blood Phe measurements before treatment and at days 3, 5 and 7 of treatment from at least one treatment period. The safety population consisted of all patients who were randomized and who received any dose of study treatment. The sample size calculation was based on an all-comers, placebo-controlled regulatory study of sapropterin with an observed mean decrease in blood Phe of 99 μmol/L and standard deviation of 220 μmol/L, and assumed a true mean decrease in blood Phe of 300 μmol/L with 80% power utilizing a 2-sided α of 0.05.
# Response to PTC923 was evaluated by measuring the mean change from baseline in blood Phe (calculated as the mean of measurements at days 3, 5 and 7 of each treatment period). Day 1 pre-dose blood Phe concentrations for each treatment period served as the individual patient specific baseline for that period.
# The change from baseline in blood Phe of each treatment period was modelled using a linear mixed model for repeated measures (MMRM). The efficacy model included fixed effects for baseline for each treatment period, treatment group, sequence, period, and a random subject effect within each sequence, with a first order autoregressive AR (1) covariance structure. No unplanned covariates were included.
# Pairwise comparisons in changes from baseline in Phe were performed between each PTC923 treatment and sapropterin treatment by calculating the least squares means with Dunnet's method of adjustment for multiple comparisons. The estimated change in blood Phe levels, their standard errors (SE) and associated p-values were calculated for each pairwise comparison. Dunnet's method of adjustment was used to account for the multiple comparisons of the test groups against the control group. This adjustment ensured that the overall Type I error rate under the null hypothesis was maintained despite multiple test groups being compared to the single control group.
# The overall mean changes in blood Phe for each treatment were calculated and the standard deviations (SD) were determined.
# A prespecified sensitivity analysis excluded treatment periods where baseline Phe was <300 μmol/L and a responder analysis looked at patients with baselines ≥300 μmol/L who responded to sapropterin and/or to PTC923 treatment by ≥20% reduction.
# [1] = All subjects (N = 24), 20 mg/kg/day oral
# [2] = All subjects (N = 24), 60 mg/kg/day oral
# [3] = Subjects with classical PKU (N = 11), 20 mg/kg/day oral
# [4] = Subjects with classical PKU (N = 11), 60 mg/kg/day oral
# [5] = patients on PTC923 60mg/kg with at least 30% reduction in Phe
smiles,measurement,setting,value
"C[C@H](O)C(=O)C1=Nc2c(nc(N)[nH]c2=O)NC1 [sepiapterin, Sepiapterin]",Proportion of patients achieving blood Phe <360 μmol/L,20 mg/kg,46%
same,Proportion of patients achieving blood Phe <360 μmol/L,60 mg/kg,50%
same,LSM difference in blood Phe change vs. sapropterin dihydrochloride,"11 patients with classical PKU, PTC923 60 mg/kg",-148.0 µmol/L
same,"Mean (SD) blood Phe, At baseline","All subjects (N = 24), 20 mg/kg period",694.2 (396.0) μmol/L
same,Least squares mean (SE) change from baseline in blood Phe,[1],−146.9 (41.8) μmol/L
same,"Mean (SD) blood Phe, Change",[1],−143.7 (224.8) μmol/L
same,"Mean (SD) blood Phe, On treatment",[1],550.4 (433.7) μmol/L
same,"Mean (SD) blood Phe, At baseline","All subjects (N = 24), 60 mg/kg period",727.8 (388.2) μmol/L
same,Least squares mean (SE) change from baseline in blood Phe,[2],−206.4 (41.8) μmol/L
same,"Mean (SD) blood Phe, Change",[2],−210.1 (235.8) μmol/L
same,"Mean (SD) blood Phe, On treatment",[2],517.7 (411.7) μmol/L
same,Least squares mean change from baseline in blood Phe to first Phe measurement (Day 3),"Day 3, 20 mg/kg",-167.5 µmol/L
same,Least squares mean change from baseline in blood Phe to first Phe measurement (Day 3),"Day 3, 60 mg/kg",-206.6 µmol/L
same,LSM difference in blood Phe change vs. sapropterin dihydrochloride,"Day 3, PTC923 20 mg/kg, underlying changes in μmol/L",−95.2
same,LSM difference in blood Phe change vs. sapropterin dihydrochloride,"Day 3, PTC923 60 mg/kg, underlying changes in μmol/L",−131.3
same,Effect on blood Phe compared with sapropterin dihydrochloride 20 mg/kg (in words),PTC923 20 mg/kg,numerically larger
same,Reducing blood Phe compared with sapropterin dihydrochloride 20 mg/kg (in words),"PTC923 60 mg/kg, p=0.0098",significantly more effective
same,Mean absolute reduction in plasma phenylalanine (FIG. 1),PTC923 (60 mg/kg/day),over 200 micromole per liter
same,"Mean (SD) blood Phe, At baseline","Subjects with classical PKU (N = 11), 20 mg/kg period",944.6 (354.6) μmol/L
same,"Mean (SD) blood Phe, Change",[3],−75.5 (201.8) μmol/L
same,Least squares mean (SE) change from baseline in blood Phe,"Subjects with classical PKU (N = 11), 20 mg/kg/day oral, listed as PTC923, 20 mg/kg/day",−71.5 μmol/L and −71.5 (61.8) μmol/L
same,"Mean (SD) blood Phe, On treatment",[3],869.1 (424.1) μmol/L
same,"Mean (SD) blood Phe, At baseline","Subjects with classical PKU (N = 11), 60 mg/kg period",947.2 (363.0) μmol/L
same,"Mean (SD) blood Phe, Change",[4],−146.0 (187.7) μmol/L
same,Least squares mean (SE) change from baseline in blood Phe,"Subjects with classical PKU (N = 11), 60 mg/kg/day oral, listed as PTC923, 60 mg/kg/day",−150.8 μmol/L and −150.8 (63.1) μmol/L
same,"Mean (SD) blood Phe, On treatment",[4],801.2 (396.5) μmol/L
same,Classical PKU subjects responding with a decrease in phenylalanine levels of at least 20%,classical PKU subjects,about 45%
same,"Number of patients showing blood Phe reduction of ≥20%, higher than with sapropterin",cofactor responder analysis,50%
same,Number of subjects normalized (day 7 blood phenylalanine less than 120 micromole per liter) compared to sapropterin dihydrochloride,day 7,3-4 times
same,Least squares mean change from baseline in blood Phe,"group of 12 responders (Phe reduction ≥20%, baseline ≥300 μmol/L), 20 mg/kg",-234.8 µmol/L
same,Least squares mean change from baseline in blood Phe,"group of 12 responders (Phe reduction ≥20%, baseline ≥300 μmol/L), 60 mg/kg",-322.2 µmol/L
same,LSM difference in blood Phe change vs. sapropterin dihydrochloride,"group of 12 responders, PTC923 60 mg/kg",-182.5 µmol/L
same,Subject-reported effects (in words),"human, in vivo",improvement in sleep quality and better focus
same,Times more likely to reach normalized blood phenylalanine (less than 120 micromole per liter) compared to sapropterin dihydrochloride,"human, in vivo",13.45 times
same,Non-classical subjects normalized (blood phenylalanine less than 120 micromole per liter),non-classical subjects,46%
same,Proportion of patients achieving blood Phe <360 μmol/L,on either dose of PTC923,54%
same,More subjects responded than to sapropterin dihydrochloride,overall responders,60%
same,Absolute Phe reduction from baseline,[5],-485.3 µmol/L
same,Absolute mean percentage change in Phe from baseline,[5],-72.5%
same,Least squares mean change from baseline in blood Phe,"sensitivity analysis population (excluding periods with baseline Phe <300 μmol/L), 20 mg/kg",-167.8 µmol/L
same,Least squares mean change from baseline in blood Phe,"sensitivity analysis population (excluding periods with baseline Phe <300 μmol/L), 60 mg/kg",-226.9 µmol/L
same,LSM difference in blood Phe change vs. sapropterin dihydrochloride,"sensitivity analysis population, PTC923 60 mg/kg",-121.4 µmol/L

# Source: patent publication US20220362249A1, “METHODS FOR TREATING […]” (PTC Therapeutics MP, Inc., priority 2019, published 2022)
